Results: US10945992B1, “Dosage forms of rofecoxib and related methods” (Tremeau Pharmaceuticals, Inc., priority 2019, dated 2021)
“Also recorded” adds a separate entry of the source. Read-outs that look alike come from different tables or passages of the source.

How the values were obtained:
Solubility of rofecoxib = assay type: physicochemical
Method: In some embodiments, rofecoxib is a white to off-white to light yellow powder. […] The 50 mg tablets may also contain red ferric oxide. […] Added as preservatives are sodium methylparaben about 0.13% and sodium propylparaben about 0.02%.
https://www.ccdc.cam.ac.uk/structures/Search?Compound=Rofecoxib&DatabaseToSearch=Published). […] Rofecoxib has no ionizable moieties and cannot form salts; the solubility of rofecoxib cannot be increased by changing pH. Therefore, in some embodiments, rofecoxib is micronized in the final step of the manufacturing process in order to increase dissolution rate. Description of Manufacturing Process and Process Controls for Rofecoxib Tablets

[1] = TRM-201-PK-101 safety: treatment-emergent adverse events; assay type: in vivo, human; settings: 25 mg, 101 study
Excerpt: Safety and tolerability will include monitoring and recording of AEs, clinical laboratory assessments (hematology, serum chemistry, and urinalysis), vital sign measurements, 12-lead ECG assessments, and physical examination findings.
A treatment-emergent AE (TEAE) is defined as any event not present before exposure to study drug or any event already present that worsens in either intensity or frequency after exposure to study drug.
All safety data will be summarized for the PILOT portion, MAIN study, and FOOD-EFFECT sub study combined. Subjects who received 2 single doses will be counted once with all of their safety data combined. The incidence of adverse events will be presented by the MedDRA system organ class and preferred term, relationship to the test article, and severity. Descriptive statistics of clinical laboratory results and vital signs will be presented, as well as summaries of changes from baseline (from the Check-in visit(s)) and of clinically notable values.
All AE data will be presented in a data listing by study part and within the FOOD-EFFECT sub study by treatment sequence. TEAEs will be summarized overall, as well as by severity and relationship to study drug. Serious AEs and AEs leading to discontinuation of study drug will also be presented in the data listings and summarized.

[2] = 101 and 102 PK studies combined (fasted); assay type: in vivo; settings: human, plasma, oral; for half-life: read-out: median t1/2 (converted)
Excerpt: The primary analysis model for data from this trial included data from this trial and that from the 25-mg dose from TRM-201-PK-101 (fasted results only), which were combined via mixed model repeated measures analysis (MMRM) in order to maximize the precision of the estimates. An MMRM analysis on natural log scale was simulated for the 25-mg dose (N=50) data using the between-subject SD of 0.31 from TRM-201-PK-101 and for the estimated 25-mg and 20-mg data that N=20 subjects were expected to yield in this study. The purpose of this simulation was to estimate the SD for the least squares natural log scale mean for the 20-mg dose. […] The subject effect data expected for this study was simulated from the back-calculated variance of the between-subject mean effect (Var (between-subject-mean)=SDbetween^2−SDwithin^2). For the maximum between- and within-SB's 0.31 and 0.12, 1000 simulations yielded an effective SD of 0.21 for the least squares mean of 20 mg, which was used for the following power calculations.
The arithmetic mean AUC0-∞ for 12.5 mg of TRM-201 is 2010 ng·hr/mL. The geometric mean AUC0-∞ for 12.5 mg of TRM-201 is 1880 ng·hr/mL. The arithmetic mean AUC0-∞ for 17.5 mg of TRM-201 is 3290 ng·hr/mL. The geometric mean AUC0-∞ for 17.5 mg of TRM-201 is 3110 ng·hr/mL. The arithmetic mean AUC0-∞ for 20 mg of TRM-201 is 3750 ng·hr/mL. The geometric mean AUC0-∞ for 20 mg of TRM-201 is 3550 ng·hr/mL. The arithmetic mean AUC0-∞ for 25 mg of TRM-201 is 4810 ng·hr/mL. The geometric mean AUC0-∞ for 25 mg of TRM-201 is 4590 ng·hr/mL.
The median time at which the Cmax is observed (Tmax) for 12.5 mg of TRM-201 is 2.00 hours. The median Tmax for 17.5 mg of TRM-201 is 2.00 hours. The Tmax for 20 mg of TRM-201 is 2.00 hours.

[3] = molecular target: cyclooxygenase-1 (COX-1) isoenzyme (Homo sapiens, UniProt P23219); settings: at therapeutic concentrations; listed as rofecoxib; cited from earlier work
cyclooxygenase-1 (COX-1) isoenzyme, sequence (P23219 24-599): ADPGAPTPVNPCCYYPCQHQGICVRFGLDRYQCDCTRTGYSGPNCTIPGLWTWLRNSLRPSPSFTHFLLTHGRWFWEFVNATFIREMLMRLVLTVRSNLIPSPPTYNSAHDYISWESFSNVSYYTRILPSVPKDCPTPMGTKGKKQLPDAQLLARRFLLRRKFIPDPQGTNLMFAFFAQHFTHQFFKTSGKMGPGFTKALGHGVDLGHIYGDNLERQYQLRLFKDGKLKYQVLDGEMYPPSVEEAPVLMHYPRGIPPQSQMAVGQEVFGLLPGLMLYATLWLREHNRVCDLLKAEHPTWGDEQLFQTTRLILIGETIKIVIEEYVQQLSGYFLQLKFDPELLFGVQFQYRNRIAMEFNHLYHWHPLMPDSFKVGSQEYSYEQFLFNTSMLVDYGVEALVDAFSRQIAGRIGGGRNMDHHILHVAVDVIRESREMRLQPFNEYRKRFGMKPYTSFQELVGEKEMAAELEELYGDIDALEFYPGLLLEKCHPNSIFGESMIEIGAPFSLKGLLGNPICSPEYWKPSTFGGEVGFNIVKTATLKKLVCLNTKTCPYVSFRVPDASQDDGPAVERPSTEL

COX-2 = COX-2 (Homo sapiens, UniProt P35354); settings: at therapeutic concentrations; cited from earlier work
COX-2, sequence (P35354 18-604): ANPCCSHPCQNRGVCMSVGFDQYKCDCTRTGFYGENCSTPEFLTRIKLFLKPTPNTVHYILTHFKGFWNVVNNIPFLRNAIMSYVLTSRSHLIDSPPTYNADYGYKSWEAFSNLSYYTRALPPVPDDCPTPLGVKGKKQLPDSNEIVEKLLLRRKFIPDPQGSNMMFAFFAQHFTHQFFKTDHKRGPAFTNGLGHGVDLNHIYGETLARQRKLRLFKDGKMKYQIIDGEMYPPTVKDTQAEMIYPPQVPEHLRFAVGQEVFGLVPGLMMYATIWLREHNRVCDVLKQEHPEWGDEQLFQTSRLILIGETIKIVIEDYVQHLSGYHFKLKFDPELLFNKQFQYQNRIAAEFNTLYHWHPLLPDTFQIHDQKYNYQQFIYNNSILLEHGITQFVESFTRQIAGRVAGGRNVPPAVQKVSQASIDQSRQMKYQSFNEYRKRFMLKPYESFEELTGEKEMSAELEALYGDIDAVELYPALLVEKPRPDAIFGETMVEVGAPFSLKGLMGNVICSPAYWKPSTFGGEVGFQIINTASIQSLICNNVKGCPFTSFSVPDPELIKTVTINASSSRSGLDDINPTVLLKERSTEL

For `CS(=O)(=O)c1ccc(C2=C(c3ccccc3)C(=O)OC2)cc1` [TRM-201, 4-[4-(methylsulfonyl)phenyl]-3-phenyl-2(5H)-furanone], the solubility (Solubility of rofecoxib; acetone) was “sparingly soluble”, the solubility (Solubility of rofecoxib; ethanol) was “very slightly soluble” and the solubility (Solubility of rofecoxib; isopropyl acetate) was “slightly soluble”. The solubility (Solubility of rofecoxib; methanol) was “slightly soluble”, the solubility (Solubility of rofecoxib; octanol) was “practically insoluble” and the solubility (Solubility of rofecoxib; water, listed as Rofecoxib) was “practically insoluble”. For the same compound, the solubility (Solubility of rofecoxib; water, listed as rofecoxib) was “insoluble”, the solubility (Solubility of rofecoxib; water, read-out: solubility in water) was under 100 µg/mL and the “serious TEAE or TEAE leading to discontinuation of the study” value [1] was “No subjects”. For the same compound, the “subjects observed with TEAEs” value [1] was “four”, the “subjects observed with TEAEs, share of the cohort” value [1] was 7.5% and the “subjects with TEAE related to treatment” value [1] was 2 subjects. The “subjects with TEAE related to treatment, share of the cohort” value [1] was 3.8%, the AUC(0-inf) ([2]; 12.5 mg, 101 and 102 studies (FIG. 47), read-out: arithmetic mean AUC0-∞) was 2010 ng·h/mL and the Cmax ([2]; 12.5 mg, 101 and 102 studies (FIG. 47), read-out: arithmetic mean Cmax) was 151 ng/mL. For the same compound, the AUC(0-inf) ([2]; 12.5 mg, 101 and 102 studies (FIG. 47), read-out: geometric mean AUC0-∞) was 1880 ng·h/mL, the Cmax ([2]; 12.5 mg, 101 and 102 studies (FIG. 47), read-out: geometric mean Cmax) was 144 ng/mL and the half-life ([2]; 12.5 mg) was 12 h. It also gave an AUC(0-inf) ([2]; 17.5 mg, 101 and 102 studies (FIG. 47), read-out: arithmetic mean AUC0-∞) of 3290 ng·h/mL, a Cmax ([2]; 17.5 mg, 101 and 102 studies (FIG. 47), read-out: arithmetic mean Cmax) of 236 ng/mL and an AUC(0-inf) ([2]; 17.5 mg, 101 and 102 studies (FIG. 47), read-out: geometric mean AUC0-∞) of 3110 ng·h/mL. It also gave a Cmax ([2]; 17.5 mg, 101 and 102 studies (FIG. 47), read-out: geometric mean Cmax) of 224 ng/mL, a Tmax ([2]; 17.5 mg, read-out: median Tmax) of 2 h and a half-life ([2]; 17.5 mg) of 11.7 h. It also gave an AUC(0-inf) ([2]; 20 mg, 101 and 102 studies (FIG. 47), read-out: arithmetic mean AUC0-∞) of 3750 ng·h/mL, a Cmax ([2]; 20 mg, 101 and 102 studies (FIG. 47), read-out: arithmetic mean Cmax) of 277 ng/mL and an AUC(0-inf) ([2]; 20 mg, 101 and 102 studies (FIG. 47), read-out: geometric mean AUC0-∞) of 3550 ng·h/mL. For the same compound, the Cmax ([2]; 20 mg, 101 and 102 studies (FIG. 47), read-out: geometric mean Cmax) was 259 ng/mL, the Tmax ([2]; 20 mg, read-out: Tmax) was 2 h and the half-life ([2]; 20 mg) was 12.2 h. It also gave an AUC(0-inf) ([2]; 25 mg, 101 and 102 studies combined (FIG. 47), read-out: arithmetic mean AUC0-∞) of 4810 ng·h/mL, a Cmax ([2]; 25 mg, 101 and 102 studies combined (FIG. 47), read-out: arithmetic mean Cmax) of 336 ng/mL and an AUC(0-inf) ([2]; 25 mg, 101 and 102 studies combined (FIG. 47), read-out: geometric mean AUC0-∞) of 4590 ng·h/mL. The Cmax ([2]; 25 mg, 101 and 102 studies combined (FIG. 47), read-out: geometric mean Cmax) was 325 ng/mL, the Tmax ([2]; 25 mg, 101 and 102 studies combined, read-out: Tmax) was 2.5 h and the half-life ([2]; 25 mg, 101 and 102 studies combined) was 11.6 h. The “inhibition of COX-1” value [3] was “does not inhibit; also recorded: not cyclooxygenase 1 (COX-1)” and the “inhibition of COX-2” value (COX-2) was “inhibits COX-2”.
